Literature values in patent publication US20220064092A1, “METHYLATION PROCESS” (priority 2019, published 2022).

Details: qualitative statement

In the case of `Oc1ccc(/C=C/c2cc(O)cc(O)c2)cc1` [resveratrol, 3,5,4′-trihydroxy-trans-stilbene], the half-life is given as “very limited half-life”.
